Consider 21 compounds from US8242145B2, “Cyclic diaryl ether compounds as antagonists of prostaglandin D2 receptors” (Panmira Pharmaceuticals, LLC, priority 2008, dated 2012).

Some results are limits rather than exact numbers.

The target in test [1] is T1, human DP2 receptor (Homo sapiens, UniProt Q9Y5Y4).
T1 construct: expressed in transfected cells
T1 sequence (Q9Y5Y4 1-395): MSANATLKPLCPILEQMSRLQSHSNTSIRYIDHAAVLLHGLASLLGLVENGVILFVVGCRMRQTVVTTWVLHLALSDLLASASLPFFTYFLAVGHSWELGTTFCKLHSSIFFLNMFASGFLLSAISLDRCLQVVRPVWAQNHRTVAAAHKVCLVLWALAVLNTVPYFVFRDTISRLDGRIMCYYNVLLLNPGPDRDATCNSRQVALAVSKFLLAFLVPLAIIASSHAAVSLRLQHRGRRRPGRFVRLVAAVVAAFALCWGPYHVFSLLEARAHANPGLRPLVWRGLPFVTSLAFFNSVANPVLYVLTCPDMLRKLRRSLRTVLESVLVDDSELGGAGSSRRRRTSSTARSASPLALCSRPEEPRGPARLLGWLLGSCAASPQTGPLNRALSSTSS
As to the kind of experiment: DP2/CRTH2 radioligand binding assay using [3H]PGD2. The following applies: hDP2 (CRTH2) binding assay. Summed up: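 HEK293 membranes with stable recombinant human DP2, incubated with 1 nM [3H]PGD2 and compound 60 min at room temperature in pH 7.4 HEPES/MnCl2/EDTA buffer, with or without 0.2% human serum albumin.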

In test [2] the target is T2, human DP1 receptor (Homo sapiens, UniProt Q13258).
T2 construct: tissue Biological Specialty Corporation; host or cells: human platelets, membranes
T2 sequence (Q13258 1-359): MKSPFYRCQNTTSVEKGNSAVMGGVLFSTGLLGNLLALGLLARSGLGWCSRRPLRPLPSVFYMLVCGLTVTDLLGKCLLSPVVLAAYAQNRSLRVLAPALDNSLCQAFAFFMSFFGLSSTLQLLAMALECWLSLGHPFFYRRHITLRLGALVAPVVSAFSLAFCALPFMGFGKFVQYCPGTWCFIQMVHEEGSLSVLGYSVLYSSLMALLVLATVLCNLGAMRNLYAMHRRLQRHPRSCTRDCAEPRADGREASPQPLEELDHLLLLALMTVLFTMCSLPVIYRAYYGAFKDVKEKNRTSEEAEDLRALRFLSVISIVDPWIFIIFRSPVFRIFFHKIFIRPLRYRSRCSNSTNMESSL
As to the kind of experiment: DP1 radioligand binding assay using [3H]BWA868C. The conditions noted are these: hDP1 binding. Summed up: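 Human platelet membranes (20 μg protein/well) incubated 60 min at room temperature with 2 nM [3H]BWA868C in 50 mM Hepes, 10 mM MnCl2, 1 mM EDTA, ±0.2% human serum albumin, pH 7.4. Bound label measured after filtration; nonspecific binding defined with 10 μM BW A868C. IC50 from titration curves.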

The target in test [3] is T3, recombinant human CRTH2 receptor (Homo sapiens, UniProt Q9Y5Y4).
T3 construct: expressed in transfected cells
T3 sequence (Q9Y5Y4 1-395): T1 sequence (Q9Y5Y4 1-395)
As to the kind of experiment: GTPγS binding assay. The conditions noted are these: +HSA; read-out: hDP2 GTPγS μM (+HSA). In kind it is biochemical. Summed up: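 Membranes from CHO cells stably expressing recombinant receptor (~12.5 μg/well), incubated 60 min at 30° C with 0.05 nM [^35S]-GTPγS, 80 nM PGD2, 5 μM GDP in pH 7.4 Hepes buffer with 0.2% human serum albumin. Filter-bound radioactivity counted; specific binding = total minus binding without PGD2; IC50 from titration curves.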
On the technique in general: Binding of GTPγS marks nucleotide exchange on a G protein.

In the case of `O=C(O)Cc1cccc(Oc2ccc(Br)cc2CN2C(=O)OC[C@@H]2c2ccccc2)c1` [Compound 1-45, {3-[4-Bromo-2-((S)-2-oxo-4-phenyl-oxazolidin-3-ylmethyl)-phenoxy]-phenyl}-acetic acid], the IC50 in test [1] was under 300 nM; in test [2] it was over 1000 nM; in test [3], under 0.3 µM.

For the compound `O=C(O)Cc1cccc(Oc2ccc(Br)cc2CN2C(=O)OC[C@@H]2Cc2ccccc2)c1` [Compound 1-46, {3-[2-((S)-4-Benzyl-2-oxo-oxazolidin-3-ylmethyl)-4-bromo-phenoxy]-phenyl}-acetic acid], the IC50 in test [1] was under 300 nM; in test [2], over 1000 nM; in test [3], under 0.3 µM.

As to `O=C(O)Cc1cccc(Oc2ccc(Br)cc2CN2C[C@@H](c3ccccc3)OC2=O)c1` [Compound 1-47, {3-[4-Bromo-2-((R)-2-oxo-5-phenyl-oxazolidin-3-ylmethyl)-phenoxy]-phenyl}-acetic acid], the IC50 was under 300 nM in test [1], 300 to 1000 nM in test [2] and under 0.3 µM in test [3].

As for `O=C(O)Cc1cccc(Oc2ccc(Br)cc2CN2C[C@H](c3ccccc3)OC2=O)c1` [Compound 1-48, {3-[4-Bromo-2-((S)-2-oxo-5-phenyl-oxazolidin-3-ylmethyl)-phenoxy]-phenyl}-acetic acid], the IC50 in test [1] is under 300 nM; in test [2] it was 300 to 1000 nM; in test [3], over 1 µM.

`C[C@@H]1[C@H](c2ccccc2)OC(=O)N1Cc1cc(Br)ccc1Oc1cccc(CC(=O)O)c1` [Compound 1-49, {3-[4-Bromo-2-((4R,5S)-4-methyl-2-oxo-5-phenyl-oxazolidin-3-ylmethyl)-phenoxy]-phenyl}-acetic acid]: the IC50 in test [1] is under 300 nM; in test [2] it was under 300 nM; in test [3], under 0.3 µM.

In the case of `C[C@@H]1[C@H](c2ccc(Cl)cc2)OC(=O)N1Cc1cc(Br)ccc1Oc1cccc(CC(=O)O)c1` [Compound 1-50, (3-{4-Bromo-2-[(4R,5S)-5-(4-chloro-phenyl)-4-methyl-2-oxo-oxazolidin-3-ylmethyl]-phenoxy}-phenyl)-acetic acid], the IC50 was under 300 nM in test [1], 300 to 1000 nM in test [2] and 0.3 to 1 µM in test [3].

`C[C@@H]1[C@H](c2cc(F)cc(F)c2)OC(=O)N1Cc1cc(Br)ccc1Oc1cccc(CC(=O)O)c1` [Compound 1-51]: the IC50 in test [1] was under 300 nM; in test [2], 300 to 1000 nM; in test [3], under 0.3 µM.

As for `C[C@@H]1[C@H](c2cc(C(F)(F)F)cc(C(F)(F)F)c2)OC(=O)N1Cc1cc(Br)ccc1Oc1cccc(CC(=O)O)c1` [Compound 1-52], the figures for the IC50 in test [1], in test [2] and in test [3] were under 300 nM, over 1000 nM and over 1 µM, respectively.

Consider `C[C@@H]1[C@H](c2ccccc2)OC(=O)N1Cc1cc(Br)ccc1Oc1ccc(Cl)c(CC(=O)O)c1` [Compound 1-53, {5-[4-Bromo-2-((4R,5S)-4-methyl-2-oxo-5-phenyl-oxazolidin-3-ylmethyl)-phenoxy]-2-chloro-phenyl}-acetic acid], for which the IC50 in test [1] is under 300 nM; in test [2], over 1000 nM; in test [3], over 1 µM.

Turning to `C[C@@H]1[C@H](c2ccccc2)OC(=O)N1Cc1cc(Br)ccc1Oc1ccc(C(F)(F)F)c(CC(=O)O)c1` [Compound 1-54, {5-[4-Bromo-2-((4R,5S)-4-methyl-2-oxo-5-phenyl-oxazolidin-3-ylmethyl)-phenoxy]-2-trifluoromethyl-phenyl}-acetic acid], the IC50 in test [1] was 300 to 1000 nM; in test [2], over 1000 nM; in test [3], over 1 µM.

With `C[C@@H]1[C@H](c2ccccc2)OC(=O)N1Cc1cc(Br)ccc1Oc1cc(F)cc(CC(=O)O)c1` [Compound 1-55, {3-[4-Bromo-2-((4R,5S)-4-methyl-2-oxo-5-phenyl-oxazolidin-3-ylmethyl)-phenoxy]-5-fluoro-phenyl}-acetic acid], the results for the IC50 in test [1], in test [2] and in test [3] were under 300 nM, over 1000 nM and under 0.3 µM, respectively.

As for `C[C@@H]1[C@H](c2ccccc2)OC(=O)N1Cc1cc(Br)ccc1Oc1cc(Cl)cc(CC(=O)O)c1` [Compound 1-56, {3-[4-Bromo-2-((4R,5S)-4-methyl-2-oxo-5-phenyl-oxazolidin-3-ylmethyl)-phenoxy]-5-chloro-phenyl}-acetic acid], the results for the IC50 in test [1], in test [2] and in test [3] were under 300 nM, over 1000 nM and under 0.3 µM, respectively.

Consider `C[C@@H]1[C@H](c2ccccc2)OC(=O)N1Cc1cc(Br)ccc1Oc1cc(CC(=O)O)cc(C(F)(F)F)c1` [Compound 1-57, {3-[4-Bromo-2-((4R,5S)-4-methyl-2-oxo-5-phenyl-oxazolidin-3-ylmethyl)-phenoxy]-5-trifluoromethyl-phenyl}-acetic acid], for which the figures for the IC50 in test [1], in test [2] and in test [3] were under 300 nM, over 1000 nM and under 0.3 µM, respectively.

In the case of `C[C@@H]1[C@H](c2ccccc2)OC(=O)N1Cc1cc(Br)ccc1Oc1cc(CC(=O)O)ccc1Cl` [Compound 1-58, {3-[4-Bromo-2-((4R,5S)-4-methyl-2-oxo-5-phenyl-oxazolidin-3-ylmethyl)-phenoxy]-4-chloro-phenyl}-acetic acid], the IC50 in test [1] was under 300 nM; in test [2], over 1000 nM; in test [3] it was 0.3 to 1 µM.

For the compound `COc1ccc(CC(=O)O)cc1Oc1ccc(Cl)cc1CN1C(=O)O[C@@H](c2ccccc2)[C@H]1C` [Compound 1-59, {3-[4-Chloro-2-((4R,5S)-4-methyl-2-oxo-5-phenyl-oxazolidin-3-ylmethyl)-phenoxy]-4-methoxy-phenyl}-acetic acid], the IC50 in test [1] was under 300 nM; in test [2] it was over 1000 nM; in test [3] it was under 0.3 µM.

Regarding `COc1ccc(CC(=O)O)cc1Oc1ccc(Br)cc1CN1C(=O)O[C@@H](c2ccccc2)[C@H]1C` [Compound 1-60, {3-[4-Bromo-2-((4R,5S)-4-methyl-2-oxo-5-phenyl-oxazolidin-3-ylmethyl)-phenoxy]-4-methoxy-phenyl}-acetic acid], the IC50 in test [1] was under 300 nM; in test [2], over 1000 nM; in test [3], under 0.3 µM.

Regarding `COc1ccc(CC(=O)O)cc1Oc1ccc(C(F)(F)F)cc1CN1C(=O)O[C@@H](c2ccccc2)[C@H]1C` [Compound 1-61, {4-Methoxy-3-[2-((4R,5S)-4-methyl-2-oxo-5-phenyl-oxazolidin-3-ylmethyl)-4-trifluoromethyl-phenoxy]-phenyl}-acetic acid], the IC50 in test [1] is under 300 nM; in test [2] it was over 1000 nM; in test [3] it was 0.3 to 1 µM.

As for `COc1ccc(CC(=O)O)cc1Oc1ccc(Br)cc1CN1C(=O)O[C@@H](c2ccc(Cl)cc2)[C@H]1C` [Compound 1-62], the IC50 was under 300 nM in test [1], over 1000 nM in test [2] and 0.3 to 1 µM in test [3].

Take `COc1ccc(CC(=O)O)cc1Oc1ccc(Br)cc1CN1C(=O)O[C@@H](c2cc(F)cc(F)c2)[C@H]1C` [Compound 1-63, (3-{4-Bromo-2-[(4R,5S)-5-(3,5-difluoro-phenyl)-4-methyl-2-oxo-oxazolidin-3-ylmethyl]-phenoxy}-4-methoxy-phenyl)-acetic acid]: the figures for the IC50 in test [1], in test [2] and in test [3] were under 300 nM, over 1000 nM and under 0.3 µM, respectively.

`COc1ccc(CC(=O)O)cc1Oc1ccc(Br)cc1CN1C(=O)O[C@@H](c2cc(C(F)(F)F)cc(C(F)(F)F)c2)[C@H]1C` [Compound 1-64, (3-{2-[(4R,5S)-5-(3,5-Bis-trifluoromethyl-phenyl)-4-methyl-2-oxo-oxazolidin-3-ylmethyl]-4-bromo-phenoxy}-4-methoxy-phenyl)-acetic acid]: the results for the IC50 in test [1], in test [2] and in test [3] were 300 to 1000 nM, over 1000 nM and over 1 µM, respectively.

As to `CCNC(=O)c1ccc(Oc2cc(CC(=O)O)ccc2OC)c(CN2C(=O)O[C@@H](c3ccccc3)[C@H]2C)c1` [Compound 1-65, {3-[4-Ethylcarbamoyl-2-((4R,5S)-4-methyl-2-oxo-5-phenyl-oxazolidin-3-ylmethyl)-phenoxy]-4-methoxy-phenyl}-acetic acid], the IC50 in test [1] is under 300 nM; in test [2], over 1000 nM; in test [3] it was 0.3 to 1 µM.
